Where a name gives a salt, the structure may show the parent alone. Read-outs that look alike come from different tables or passages of the source. Peptide text beside a SMILES is read from it.
How the values were obtained:
[1] = Aerodynamic particle size distribution, NEXT GENERATION IMPACTOR, passive blister dry powder inhaler; format: physicochemical; conditions: Lot A2; for % deviation in FPFd2Q<500: going from 35 L/min to 47 L/min
Procedure: The aerodynamic particle size distribution (aPSD) of the resulting aerosol dose was assessed using a NEXT GENERATION IMPACTOR™ at flow rates of 35 LPM and 47 LPM, corresponding to inhaler pressure drops of 4 kPa and 6 kPa, respectively. Note for present purposes flow rate and pressure drop are related via the inhaler flow resistance, and are used interchangeably. The mass distribution of each active ingredient on the cascade impactor stages was determined using an HPLC assay.
Total lung deposition as a function of variations in flow rate (O) is dependent not only on the aerodynamic particle size distribution of the aerosol, but also on the variations in inertial impaction which occur with changes in flow rate. In other words, for a given aPSD, the lung dose is expected to decrease as the flow rate increases. In order to achieve flow rate independence in-vivo, it is important to achieve a balance of these two opposing factors. A simple way to account for the dependence of lung dose on both variables, i.e. aerodynamic particle size cutoff diameter, d, and flow rate, Q, is to express the aPSD in terms of a fine particle fraction cut-off which incorporates both variables. Assuming oropharyngeal losses are determined largely by inertial impaction, the cut-off for lung dose may be expressed in terms of the impaction parameter, d^2Q. The selected cut-off d^2Q of 500 μm^2-L/min was chosen to represent a range of inhalers, based on the fact that the best correlate of lung deposition is found for the fraction of particles with an aerodynamic size of less than 3 μm, and a medium resistance inhaler is typically tested at a flow rate of about 60 L/min.

[2] = TURBUHALER, cited from earlier work
[3] = target: β2-adrenoceptor (Homo sapiens, UniProt P07550); conditions: cited from earlier work
β2-adrenoceptor, sequence (P07550 whole entry, species assumed): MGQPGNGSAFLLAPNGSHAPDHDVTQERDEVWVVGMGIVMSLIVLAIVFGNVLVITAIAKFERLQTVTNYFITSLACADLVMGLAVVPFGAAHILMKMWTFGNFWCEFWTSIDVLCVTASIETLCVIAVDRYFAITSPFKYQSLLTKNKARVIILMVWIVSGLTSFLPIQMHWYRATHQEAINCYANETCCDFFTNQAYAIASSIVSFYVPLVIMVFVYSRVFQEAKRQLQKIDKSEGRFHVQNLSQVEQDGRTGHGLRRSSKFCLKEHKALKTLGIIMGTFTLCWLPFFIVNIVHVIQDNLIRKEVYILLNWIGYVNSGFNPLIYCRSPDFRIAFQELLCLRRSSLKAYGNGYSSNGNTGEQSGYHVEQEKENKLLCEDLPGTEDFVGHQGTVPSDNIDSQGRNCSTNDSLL

[4] = cited from earlier work
[5] = pressure drop 4 kPa, flow rate 35 L/min
[6] = pressure drop 6 kPa, flow rate 47 L/min

With `C[N+]1(C)CCC(OC(=O)C(O)(c2ccccc2)C2CCCC2)C1.[Br-]` (centres unmarked) [Glycopyrrolate, 3-[(cyclopentyl-hydroxyphenyl-acetyl)oxy]-1,1-dimethylpyrrolidinium bromide] the “% deviation in FPFd2Q<500” value [1] was 8.1%.

For `CCc1cc2c(cc1CC)CC(NC[C@H](O)c1ccc(O)c3[nH]c(=O)ccc13)C2` [Indacaterol maleate, (R)-5-[2-(5,6-diethyl-indan-2-ylamino)-1-hydroxyethyl]-8-hydroxy-1H-quinolin-2-one], the “FPF<3.3 μm” value [1, 5] was 57 % DD, the MMAD [1, 5] was 2.8 μm and the “d^2Q < 500” value [1, 5] was 65. The “FPF<3.3 μm” value [1, 6] was 69 % DD, the MMAD [1, 6] was 2.3 μm and the “d^2Q < 500” value [1, 6] was 68.

For `CCCC1O[C@@H]2C[C@H]3[C@@H]4CCC5=CC(=O)C=C[C@]5(C)[C@H]4[C@@H](O)C[C@]3(C)[C@]2(C(=O)CO)O1` (some centres unmarked) [budesonide], the total lung deposition ([2]; breathe more slowly (comfortable inhalation manoeuvre)) is listed as 15% and the total lung deposition ([2]; breathe quickly (forceful inhalation manoeuvre)) is listed as 28%.

For `CCc1cc2c(cc1CC)CC(NC[C@H](O)c1ccc(O)c3[nH]c(=O)ccc13)C2` [indacaterol, (R)-5-[2-(5,6-diethyl-indan-2-ylamino)-1-hydroxyethyl]-8-hydroxy-1H-quinolin-2-one], the “% deviation in FPFd2Q<500” value [1] is listed as 4.6%, the duration of action [3] is listed as “over 24 hours” and the onset of action [3] is listed as “about 10 minutes”.

For `O=C([O-])CC(O)(CC(=O)[O-])C(=O)[O-].[Na+].[Na+].[Na+]` [sodium citrate], the “Dry Tg” value ([4]; pH > 7) is given as 170 (pH > 7) ° C.

In the case of `CC(C)C[C@H](NC(=O)[C@H](CC(C)C)NC(=O)[C@@H](N)CC(C)C)C(=O)O` [trileucine] (H-Leu-Leu-Leu-OH), the Dry Tg ([4]; pH dependent) is given as 70 to 100 °C.

Source: patent US9050267B2 (Novartis AG, priority 2011, dated 2015)
